Laboratory results: US7091182B2, “Method for assisting in differential diagnosis and treatment of autistic syndromes” (Repligen Corporation, priority 1997, dated 2006)

Key:
[1] = system: children with autistic behavior; test: Blood levels of gastrointestinal peptide hormones and neurotransmitters prior to and 10 minutes after secretin stimulation; format: in vivo, human
Description: After fasting from midnight, upper gastrointestinal endoscopies were carried out the next morning under general anesthesia. All gastric juice was aspirated before passing the endoscope into the duodenum. The pancreatico-biliary juice was collected after positioning the endoscope distal to the ampulla of Vater. An ERCP catheter was placed into the channel of endoscope and the fluid was collected by moving the tip into the outcoming fluid and suctioning it into a syringe. The pancreas was then stimulated with secretin 2 IU/kg BW (Ferring Laboratories, Inc. Suffern, NY, USA) given intravenously within a minute. Three additional specimens were collected after the secretin injection within a 10-minute period. Blood samples were collected prior to and 10 minutes after secretin stimulation. In a subgroup of children, the effect of duodenal acidification was determined by measurement of blood secretin levels before and 4–5 minutes after washing the second part of the duodenum with 0.05M hydrochloric acid for 5 minutes. At the end of the procedure, biopsies were obtained of the small intestine, esophagus and stomach.
Blood samples were analyzed for the levels of gastrointestinal peptide hormones (Secretin, CCK, VIP, Peptide Y) and neurotransmitters (Serotonin, Substance P). All the assays were performed in the Interscience Institute (Inglewood, Calif.) specialized in gastrointestinal hormone measurements.

[2] = system: children without behavioral abnormalities; adults; test: Secretin stimulatory response (pancreatic juice output) in non-autistic children and adults; format: in vivo, human
Description: The time required to collect basal duodenal fluid samples (1–2 ml) prior to secretin administration was 2–5 minutes, which was similar to that of non-autistic controls. […] Published adult responses using duodenal intubation and extended periods of specimen collection vary between 1.5 and 4.9 ml/min^56,57. Six out of 7 autistic patients who had chronic loose stools had pancreatico-biliary secretion rates above 5 ml/min (FIG. 4). […] The highest rate of secretion was 10 ml/min in one child.

rats = conditions: ICV; cited from earlier work
[3] = system: ovariectomized, estrogen-primed rats; conditions: cited from earlier work

Q: What does the source list for secretin?
A: Serotonin level after secretin injection ([1]; Group I (chronic loose stools/diarrhea)): >50% elevation; Serotonin level after secretin injection ([1]; Group II (no diarrhea)): <50% elevation; blood level of CCK ([1]; after secretin injection): no change at all; blood level of VIP ([1]; after secretin injection): no change at all; blood level of substance P ([1]; after secretin injection): no change at all; blood serotonin level ([1]; children with chronic diarrhea, ten minutes after secretin injection, fasting): significant elevation; blood level of Peptide Y ([1]; four children, before or after secretin administration): no abnormality; average stimulatory response for secretin ([2]; children 3–7 years of age, own data, same endoscopic collection technique): 1 to 2 mL/min; typical pancreatic juice output ([2]; children without behavioral abnormalities, ages 1 to 6): 1 to 2 mL/min; defecation (rats): significantly increased; novel-object approaches (rats): decreased; stereotypic behavior (rats): no significant effects; circadian rise of LH secretion [3]: strikingly effective in increasing
